# Assay: Gastrointestinal absorption of insulin, rat intestinal loop, plasma glucose (Experiment 1)
# Type: in vivo, Wistar male rats
# Procedure: Then 0.25 ml blood was collected from the jugular vein 0, 0.5, 1, 1.5, 2 and 3 hours after administration and the plasma glucose concentration was determined. The reduction in the plasma glucose concentration (D, % of initial*h) up to three hours after administration was calculated with the plasma glucose concentration before administration being 100. D was calculated by subtracting the plasma glucose area under concentration (% of initial*h) up to 3 hours after administration from the AUC with administration of normal saline only.
# On the other hand, by way of comparison, a liquid of 6 mg bovine insulin dissolved in 20 ml normal saline liquid was administered to a large intestine loop in an amount corresponding to 600 μg/kg insulin, or as the control, 2 ml normal saline were administered to a large intestine loop and the plasma glucose concentration was determined as described above (Glucose CII Test Wako, Wako Pure Chemical Industries, Ltd.).
substance,measurement,setting,value
"Comparison (E-SD not administered): 6 mg bovine insulin dissolved in 20 ml normal saline, without E-SD",AUC (plasma glucose),"rat intestinal loop, up to 3 hours after administration",368.84 ± 63.19 % of initial*h
same,D (reduction in the plasma glucose concentration),"up to 3 hours, AUC with normal saline only minus AUC",13.00 % of initial*h
